ChEMBL document CHEMBL5579888, “A Comparative Study on the DNA Interactions and Biological Activities of Benzophenanthridine and Protoberberine Alkaloids” (J Nat Prod, 2024)
Calls of active or inactive are those of the source. The rule behind the calls is not given here.

Tests used:
PC-3 = assay: Antiproliferative activity against human PC-3 cells assessed as reduction in cell viability incubated for 24 hrs by CCK-8 assay; format: functional, cell-based; settings: PC-3, 24 h
Quadruplex DNA [1] = assay: Displacement of ThT from human G4-quadruplex 22AG DNA 5'- AGGGTTAGGGTTAGGGTTAGGG -3' incubated for 0.5 hrs by SpectraMax M2 microplate reader analysis; format: nucleic-acid assay
A2780/Taxol = assay: Antiproliferative activity against human A2780T cells assessed as reduction in cell viability incubated for 48 hrs by CCK-8 assay; format: functional, cell-based
Quadruplex DNA [2] = assay: Binding affinity to human G4-quadruplex 22AG DNA 5'- AGGGTTAGGGTTAGGGTTAGGG -3' at 20 uM by UV-Visible absorption spectroscopic analysis; format: nucleic-acid assay
dsDNA [3] = assay: Binding affinity to double stranded DNA AT12 (unknown origin) incubated for 0.5 hrs in presence of different concentration DNA by fluorescence spectra analysis; format: nucleic-acid assay
Quadruplex DNA [4] = assay: Binding affinity to human G4-quadruplex VEGF DNA 5'- GGGCGGGCCGGGGGCGGG-3' at 20 uM by UV-Visible absorption spectroscopic analysis; format: nucleic-acid assay
dsDNA [5] = assay: Binding affinity to double stranded DNA AT15 (unknown origin) incubated for 0.5 hrs in presence of different concentration DNA by fluorescence spectra analysis; format: nucleic-acid assay
dsDNA [6] = assay: Binding affinity to double stranded DNA ssab (unknown origin) incubated for 0.5 hrs in presence of different concentration DNA by fluorescence spectra analysis; format: nucleic-acid assay
Quadruplex DNA [7] = assay: Binding affinity to human G4-quadruplex KRAS DNA 5'- AGGGCGGTGTGGGAAGAGGGAAGAGGGGGAGG-3' assessed as change in fluorescence intensity at 1 uM incubated for 0.5 hrs in presence of different concentrations of DNA by fluorescence spectra analysis; format: nucleic-acid assay
dsDNA [8] = assay: Binding affinity to double stranded DNA AT15-2AT (unknown origin) incubated for 0.5 hrs in presence of different concentration DNA by fluorescence spectra analysis; format: nucleic-acid assay
Quadruplex DNA [9] = assay: Binding affinity to human G4-quadruplex c-kit2 DNA 5'- CGGGCGGGCGCGAGGGAGGGT-3' at 20 uM by UV-Visible absorption spectroscopic analysis; format: nucleic-acid assay
Salmon testes DNA = assay: Displacement of Hoechst 33342 from salmon sperm DNA incubated for 0.5 hrs by SpectraMax M2 microplate reader analysis; format: nucleic-acid assay, Salmo salar
Quadruplex DNA [10] = assay: Binding affinity to human G4-quadruplex Bcl2 DNA 5'- CGGGCGCGGGAGGAAGGGGGCGGGAGC-3' assessed as change in fluorescence intensity at 1 uM incubated for 0.5 hrs by fluorescence spectra analysis; format: nucleic-acid assay
A549/TR = assay: Antiproliferative activity against human A549/Taxol cells assessed as reduction in cell viability incubated for 48 hrs by CCK-8 assay; format: functional, cell-based
Calf thymus DNA = assay: Displacement of Hoechst 33342 from calf thymus DNA incubated for 0.5 hrs by SpectraMax M2 microplate reader analysis; format: nucleic-acid assay, Bos taurus
A-375 [11] = assay: Induction of apoptosis in human A-375 cells assessed assessed as early apoptotic cells at 5 uM incubated for 24 hrs by Annexin V-Elab Fluor 647/propidium iodide staining based flow cytometry (reference value: 1.14 %); format: functional
A-375 [12] = assay: Induction of apoptosis in human A-375 cells assessed assessed as viable cells at 5 uM incubated for 24 hrs by Annexin V-Elab Fluor 647/propidium iodide staining based flow cytometry (reference value: 91.1 %); format: functional; settings: read-out: Activity
dsDNA [13] = assay: Binding affinity to double stranded DNA ssab1 (unknown origin) incubated for 0.5 hrs in presence of different concentration DNA by fluorescence spectra analysis; format: nucleic-acid assay
A-375 [14] = assay: Induction of DNA damage in human A-375 cells assessed as appearance of long DNA tails at 5 uM incubated for 24 hrs by comet assay; format: functional, cell-based
Quadruplex DNA [15] = assay: Binding affinity to human G4-quadruplex VEGF DNA 5'- GGGCGGGCCGGGGGCGGG-3' assessed as change in fluorescence intensity at 1 uM incubated for 0.5 hrs by fluorescence spectra analysis; format: nucleic-acid assay
Quadruplex DNA [16] = assay: Binding affinity to human G4-quadruplex c-kit2 DNA 5'- CGGGCGGGCGCGAGGGAGGGT-3' assessed as change in fluorescence intensity at 1 uM incubated for 0.5 hrs in presence of different concentrations of DNA by fluorescence spectra analysis; format: nucleic-acid assay
Quadruplex DNA [17] = assay: Displacement of ThT from human G4-quadruplex Pu27 DNA 5'- TGGGGAGGGTGGGGAGGGTGGGGAAGG-3' incubated for 0.5 hrs by SpectraMax M2 microplate reader analysis; format: nucleic-acid assay
Quadruplex DNA [18] = assay: Binding affinity to human G4-quadruplex Oxy28 DNA 5'- GGGGTTTTGGGGTTTTGGGGTTTTGGGG -3' at 10 uM by CD spectra analysis; format: nucleic-acid assay
LoVo = assay: Antiproliferative activity against human LoVo cells assessed as reduction in cell viability incubated for 48 hrs by CCK-8 assay; format: functional, cell-based
dsDNA [19] = assay: Binding affinity to double stranded DNA ssab3 (unknown origin) incubated for 0.5 hrs in presence of different concentration DNA by fluorescence spectra analysis; format: nucleic-acid assay
Quadruplex DNA [20] = assay: Binding affinity to human G4-quadruplex Bcl2 DNA 5'- CGGGCGCGGGAGGAAGGGGGCGGGAGC-3' at 20 uM by UV-Visible absorption spectroscopic analysis; format: nucleic-acid assay
Quadruplex DNA [21] = assay: Binding affinity to human G4-quadruplex Pu27 DNA 5'- TGGGGAGGGTGGGGAGGGTGGGGAAGG-3' assessed as change in fluorescence intensity at 1 uM incubated for 0.5 hrs in presence of different concentrations of DNA by fluorescence spectra analysis; format: nucleic-acid assay
Quadruplex DNA [22] = assay: Binding affinity to human G4-quadruplex KRAS DNA 5'- AGGGCGGTGTGGGAAGAGGGAAGAGGGGGAGG-3' assessed as change in fluorescence intensity at 1 uM incubated for 0.5 hrs by fluorescence spectra analysis; format: nucleic-acid assay
dsDNA [23] = assay: Binding affinity to double stranded DNA ssab2 (unknown origin) incubated for 0.5 hrs in presence of different concentration DNA by fluorescence spectra analysis; format: nucleic-acid assay

SMILES	DC50 (Quadruplex DNA [1]) [nM]	Activity (Quadruplex DNA [2])	EC50 (dsDNA [3]) [nM]	Activity (Quadruplex DNA [4])	EC50 (dsDNA [6]) [nM]	Kd (Quadruplex DNA [7]) [nM]	EC50 (dsDNA [8]) [nM]	Activity (Quadruplex DNA [9])	DC50 (Salmon testes DNA) [nM]	Activity (Quadruplex DNA [10])	DC50 (Calf thymus DNA) [nM]	Activity (A-375 [11]) [%]	viability at 5 µM (A-375 [12]) [%]	EC50 (dsDNA [13]) [nM]	Activity (A-375 [14])	Activity (Quadruplex DNA [15])	DC50 (Quadruplex DNA [17]) [nM]	Activity (Quadruplex DNA [18])	EC50 (dsDNA [19]) [nM]	Activity (Quadruplex DNA [20])	also measured
COc1ccc2cc3[n+](cc2c1OC)CCc1cc2c(cc1-3)OCO2 [BERBERINE]	23500	Active	130	Active	1040	1890	150	Active	56600	Active	30700	1.28	35.4	450	inactive	Active	540	inactive	230	Active	IC50 (PC-3): ≥ 24300 nM; IC50 (A2780/Taxol): ≥ 24300 nM; Activity (dsDNA [5]): inactive; IC50 (A549/TR): ≥ 24300 nM; Kd (Quadruplex DNA [16]): 4220 nM; IC50 (LoVo): ≥ 24300 nM; Kd (Quadruplex DNA [21]): 5400 nM; Activity (Quadruplex DNA [22]): Active; EC50 (dsDNA [23]): 100 nM
COc1ccc2c(c[n+](C)c3c4cc5c(cc4ccc23)OCO5)c1OC [CHELERYTHRINE]	3040	Active	2110	Active	1060	1070	1120	Active	6470	Active	6700	1.84	56	970	Active	Active	480	inactive	1290	Active	EC50 (dsDNA [5]): 1130 nM; Activity (Quadruplex DNA [16]): inactive; Kd (Quadruplex DNA [21]): 5290 nM; Activity (Quadruplex DNA [22]): Active; EC50 (dsDNA [23]): 1060 nM
c1c2c(cc3c1OCO3)-c1cc3ccc4c(c3c[n+]1CC2)OCO4 [COPTISINE]	1970	Active	18500	Active	5570	1130	3920	Active	38100	Active	31400	0	0.022	9390	inactive	Active	140	inactive	5840	Active	IC50 (PC-3): ≥ 24300 nM; IC50 (A2780/Taxol): ≥ 24300 nM; EC50 (dsDNA [5]): 1690 nM; IC50 (A549/TR): ≥ 24300 nM; Kd (Quadruplex DNA [16]): 2590 nM; IC50 (LoVo): ≥ 24300 nM; Kd (Quadruplex DNA [21]): 2170 nM; Activity (Quadruplex DNA [22]): Active; EC50 (dsDNA [23]): 7250 nM
C[n+]1cc2c3c(ccc2c2ccc4cc5c(cc4c21)OCO5)OCO3 [SANGUINARIUM]	2760	Active	4150	Active	740	2790	1070	Active	5700	Active	5870	0.84	20.4	790	Active	Active	260	inactive	1480	Active	EC50 (dsDNA [5]): 610 nM; Activity (Quadruplex DNA [16]): inactive; Kd (Quadruplex DNA [21]): 7190 nM; Activity (Quadruplex DNA [22]): Active; EC50 (dsDNA [23]): 1630 nM
